# Data: patent US12570662B2, “Substituted pyrrolo[1,2-b]pyridazines as bifunctional degraders of interleukin-1 receptor-associated kinases” (Nurix Therapeutics, Inc., priority 2021, dated 2026)
# Target: T1, IRAK4 (Homo sapiens, UniProt Q9NWZ3)
# T1 construct: C-terminal HiBiT-tagged Jurkat cells (polyclonal cell line or clone 8D5); endogenous in cells; host or cells: Jurkat cells (polyclonal cell line or clone 8D5), HiBiT-tagged
# T1 sequence (Q9NWZ3 1-460): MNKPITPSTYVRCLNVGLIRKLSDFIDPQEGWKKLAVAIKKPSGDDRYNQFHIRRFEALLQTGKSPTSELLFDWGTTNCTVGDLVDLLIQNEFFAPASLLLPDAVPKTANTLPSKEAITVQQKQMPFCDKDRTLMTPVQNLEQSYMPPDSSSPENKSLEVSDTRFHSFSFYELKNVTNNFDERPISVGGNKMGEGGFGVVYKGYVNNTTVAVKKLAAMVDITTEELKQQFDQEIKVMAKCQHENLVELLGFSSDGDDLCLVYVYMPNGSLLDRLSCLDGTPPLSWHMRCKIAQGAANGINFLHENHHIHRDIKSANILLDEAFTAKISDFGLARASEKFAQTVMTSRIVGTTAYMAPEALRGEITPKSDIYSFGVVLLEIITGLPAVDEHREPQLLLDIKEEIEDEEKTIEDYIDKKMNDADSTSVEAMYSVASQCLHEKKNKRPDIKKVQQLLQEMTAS
# Experiment: IRAK4 Degradation HiBit Assay
# Format: cell-based
# Details: C-terminal HiBiT-tagged Jurkat cells, 4 hrs incubation; for DC50: % IRAK4 remaining, four-parameter fit (IC50 used as DC50); for Dmax: from fit of % IRAK4 remaining, read-out: Dmax
# Description: Compound dilution series (11-point, 3.16-fold dilutions in DMSO, columns 1-11 and 12-22) at 500× the final required concentrations were prepared in Labcyte LDV 384-well plates (cat. no. LP-0200) using a Labcyte Echo 550 Liquid Handler. The 500× solutions ranged from 5 mM to 0.5 μM (final assay concentration range 10 μM to 0.1 nM). Using the Echo, the 500× solutions were stamped into white, 384-well assay plates (Corning, cat. no. 3570) at 60 nL/well. The following assay plate controls were also stamped at 60 nL/well: DMSO in wells E23-P23 (NC, Negative Control, maximum signal), 5 mM solution control compound al in wells A23-D23 and M24-P24 (AC, Active Control, minimum signal/background, 10 μM final assay concentration), control compound al dilution series in wells […] (12-point, 4-fold dilutions). C-terminal HiBiT-tagged Jurkat cells (polyclonal cell line or clone 8D5) were plated at 1×10^6 cells/mL, 30 μL/well (3×10^4 cells/well) in complete RPMI (10% FBS, 1% L-glutamine). Cells were incubated for 4 hrs at 32° C./6% CO2. Compound al has the following structure:
# Following incubation, 30 μL of complete Nano-Glo HiBiT Lytic Detection Reagent (Nano-Glo HiBiT Lytic Buffer with 1:50 Nano-Glo HiBiT Lytic Substrate and 1:100 LgBiT Protein; Promega cat. no. N3040) was added. Cells were further incubated for 10 min at room temperature (RT). Luminescence units (LU) were read on an EnVision plate reader (Perkin Elmer, 0.1 sec per well). Percent IRAK4 remaining per sample was calculated as follows: […]
# Using Graphpad Prism, % IRAK4 remaining values were plotted as a function of compound concentration. To determine DC50 and Dmax values, resulting curves were fit to the Prism curve-fitting equation “log (inhibitor) vs response-Variable slope (four parameters)” (reported best fit value IC50 used as DC50). Table 1 summarizes the biological data of Compounds of Examples 1-137 and 142-145 obtained from the assays described herein.
SMILES,DC50,Dmax
"N#Cc1cnn2c(-c3cc(NC4CCOCC4)c(-c4nnc(N5CC6CCC(C5)N6CC5CCN(c6ccc([C@H]7CCC(=O)NC7=O)cn6)CC5)s4)cn3)ccc2c1 (single isomer, unassigned) [Example 112]",0.033 µM,92%
"CNc1cc(-c2ccc3cc(C#N)cnn23)ncc1-c1nnc([C@H]2CC[C@H](N(C)C(=O)C3CCN(c4ccc([C@@H]5CCC(=O)NC5=O)cn4)CC3)CC2)s1 (racemic) [Example 49, 1-{5-[(3RS)-2,6-dioxopiperidin-3-yl]pyridin-2-yl}-N-methyl-N-[(1r,4r)-4-[5-(6-{3-cyanopyrrolo[1,2-b]pyridazin-7-yl}-4-(methylamino)pyridin-3-yl)-1,3,4-thiadiazol-2-yl]cyclohexyl]piperidine-4-carboxamide]",0.013 µM,112%
"CCNc1cc(-c2ccc3cc(C#N)cnn23)ncc1-c1nnc(N2CC3CCC(C2)N3CC2CCN(c3ccc([C@H]4CCC(=O)NC4=O)cc3)CC2)s1 (racemic) [Example 102, rac-7-[5-(5-{8-[(1-{4-[(3R)-2,6-dioxopiperidin-3-yl]phenyl}piperidin-4-yl)methyl]-3,8-diazabicyclo[3.2.1]octan-3-yl}-1,3,4-thiadiazol-2-yl)-4-(ethylamino)pyridin-2-yl]pyrrolo[1,2-b]pyridazine-3-carbonitrile]",0.042 µM,107%
"CCNc1cc(-c2ccc3cc(C#N)cnn23)ncc1-c1nnc(N2CC3CCC(C2)N3CC2CCN(c3ccc([C@@H]4CCC(=O)NC4=O)cc3)CC2)s1 (single isomer, unassigned) [Example 126]",0.043 µM,108%
"CC(C)Nc1cc(-c2ccc3cc(C#N)cnn23)ncc1-c1nnc(N2CCN(C[C@@H]3CCN(c4ccc([C@H]5CCC(=O)NC5=O)cn4)C3)CC2)s1 (racemic) [Example 10, 7-{5-[5-(4-{[(3RS)-1-{5-[(3RS&)-2,6-dioxopiperidin-3-yl]pyridin-2-yl}pyrrolidin-3-yl]methyl}piperazin-1-yl)-1,3,4-thiadiazol-2-yl]-4-[(propan-2-yl)amino]pyridin-2-yl}pyrrolo[1,2-b]pyridazine-3-carbonitrile]",0.041 µM,71%
"N#Cc1cnn2c(-c3cc(NC4CCOCC4)c(-c4nnc(N5CC6CCC(C5)N6CC5CCN(c6ccc(N7CCC(=O)NC7=O)cn6)CC5)s4)cn3)ccc2c1 [Example 86, 7-(5-{5-[8-({1-[5-(2,4-dioxo-1,3-diazinan-1-yl)pyridin-2-yl]piperidin-4-yl}methyl)-3,8-diazabicyclo[3.2.1]octan-3-yl]-1,3,4-thiadiazol-2-yl}-4-[(oxan-4-yl)amino]pyridin-2-yl)pyrrolo[1,2-b]pyridazine-3-carbonitrile]",0.012 µM,111%
"CNc1cc(-c2ccc3cc(C#N)cnn23)ncc1-c1nnc(N2CC3CCC(C2)N3C(=O)C2CCN(c3ccc([C@H]4CCC(=O)NC4=O)cn3)CC2)s1 (racemic) [Example 46, rac-7-(5-{5-[8-(1-{5-[(3R)-2,6-dioxopiperidin-3-yl]pyridin-2-yl}piperidine-4-carbonyl)-3,8-diazabicyclo[3.2.1]octan-3-yl]-1,3,4-thiadiazol-2-yl}-4-(methylamino)pyridin-2-yl)pyrrolo[1,2-b]pyridazine-3-carbonitrile]",0.006 µM,111%
"N#Cc1cnn2c(-c3cc(NC4CCOCC4)c(-c4nnc(N5CCN(CC6CCN(c7ccc(N8CCC(=O)NC8=O)cc7)CC6)CC5)s4)cn3)ccc2c1 [Example 60, 7-(5-{5-[4-({1-[4-(2,4-dioxo-1,3-diazinan-1-yl)phenyl]piperidin-4-yl}methyl)piperazin-1-yl]-1,3,4-thiadiazol-2-yl}-4-[(oxan-4-yl)amino]pyridin-2-yl)pyrrolo[1,2-b]pyridazine-3-carbonitrile]",0.016 µM,86%
"CC1(Nc2cc(-c3ccc4cc(C#N)cnn34)ncc2-c2nnc(N3CCN(CC4CCN(c5ccc(N6CCC(=O)NC6=O)cn5)CC4)CC3)s2)COC1 [Example 80, 7-(5-{5-[4-({1-[5-(2,4-dioxo-1,3-diazinan-1-yl)pyridin-2-yl]piperidin-4-yl}methyl)piperazin-1-yl]-1,3,4-thiadiazol-2-yl}-4-[(3-methyloxetan-3-yl)amino]pyridin-2-yl)pyrrolo[1,2-b]pyridazine-3-carbonitrile]",0.084 µM,90%
"N#Cc1cnn2c(-c3cc(NC4CCOCC4)c(-c4nnc(N5CCN(C(=O)C6CCN(c7cc(C8CCC(=O)NC8=O)ccn7)CC6)CC5)s4)cn3)ccc2c1 (racemic) [Example 16, rac-7-(5-{5-[4-(1-{4-[(3R)-2,6-dioxopiperidin-3-yl]pyridin-2-yl}piperidine-4-carbonyl)piperazin-1-yl]-1,3,4-thiadiazol-2-yl}-4-[(oxan-4-yl)amino]pyridin-2-yl)pyrrolo[1,2-b]pyridazine-3-carbonitrile]",0.026 µM,62%

# Results, then the compound that gave them:
DC50,Dmax,SMILES
0.068 µM,109%,"N#Cc1cnn2c(-c3cc(NC4CC4)c(-c4nnc(N5CCN(CC6CCN(c7ccc([C@@H]8CCC(=O)NC8=O)cc7)CC6)CC5)s4)cn3)ccc2c1 (single isomer, unassigned) [Example 120]"
0.129 µM,17%,"CC(C)Nc1cc(-c2ccc3cc(C#N)cnn23)ncc1-c1nnc(N2CCN(CC3CCN(c4ccc(C5CCC(=O)NC5=O)cn4)CC3)C3(CC3)C2)s1 (racemic) [Example 7, rac-7-[5-(5-{4-[(1-{5-[(3R)-2,6-dioxopiperidin-3-yl]pyridin-2-yl}piperidin-4-yl)methyl]-4,7-diazaspiro[2.5]octan-7-yl}-1,3,4-thiadiazol-2-yl)-4-[(propan-2-yl)amino]pyridin-2-yl]pyrrolo[1,2-b]pyridazine-3-carbonitrile]"
0.018 µM,111%,"C[C@H](C#N)Nc1cc(-c2ccc3cc(C#N)cnn23)ncc1-c1nnc(N2CCN(CC3CCN(c4ccc(C5CCC(=O)NC5=O)cc4)CC3)CC2)s1 (mixture of isomers) [Example 97, 7-(4-{[(1R)-1-cyanoethyl]amino}-5-(5-{4-[(1-{4-[(3RS)-2,6-dioxopiperidin-3-yl]phenyl}piperidin-4-yl)methyl]piperazin-1-yl}-1,3,4-thiadiazol-2-yl)pyridin-2-yl)pyrrolo[1,2-b]pyridazine-3-carbonitrile]"
0.006 µM,110%,"CCNc1cc(-c2ccc3cc(C#N)cnn23)ncc1-c1nnc(N2CCN(CC3CCN(c4ccc(N5CCC(=O)NC5=O)cn4)CC3)CC2)s1 [Example 71, 7-(5-{5-[4-({1-[5-(2,4-dioxo-1,3-diazinan-1-yl)pyridin-2-yl]piperidin-4-yl}methyl)piperazin-1-yl]-1,3,4-thiadiazol-2-yl}-4-(ethylamino)pyridin-2-yl)pyrrolo[1,2-b]pyridazine-3-carbonitrile]"
0.018 µM,90%,"N#Cc1cnn2c(-c3cc(NC4CCOCC4)c(-c4nnc(C56CCC(CN7CCC(c8ccc(C9CCC(=O)NC9=O)cn8)CC7)(CC5)CC6)s4)cn3)ccc2c1 (racemic) [Example 23, rac-7-[5-(5-{4-[(4-{5-[(3R)-2,6-dioxopiperidin-3-yl]pyridin-2-yl}piperidin-1-yl)methyl]bicyclo[2.2.2]octan-1-yl}-1,3,4-thiadiazol-2-yl)-4-[(oxan-4-yl)amino]pyridin-2-yl]pyrrolo[1,2-b]pyridazine-3-carbonitrile]"
0.036 µM,60%,"N#Cc1cnn2c(-c3cc(NC4CCOCC4)c(-c4nnc(N5CCN(CC6CCN(c7cc(C8CCC(=O)NC8=O)ccn7)CC6)CC5)s4)cn3)ccc2c1 (racemic) [Example 12, rac-7-[5-(5-{4-[(1-{4-[(3R)-2,6-dioxopiperidin-3-yl]pyridin-2-yl}piperidin-4-yl)methyl]piperazin-1-yl}-1,3,4-thiadiazol-2-yl)-4-[(oxan-4-yl)amino]pyridin-2-yl]pyrrolo[1,2-b]pyridazine-3-carbonitrile]"
